Experimental data from US12691143B2, “Method for treating cancer” (priority 2020, dated 2026).
Entries after “also recorded” stand apart in the source; their conditions may differ.

Columns and labels:
[1] = tested on: MDA-MB-468 breast cancer cell line (NER deficient, ERCC4 silenced); test: In vitro drug sensitivity assay, parental vs ERCC4-complemented line; format: cell-based; conditions: NER-deficient parental MDA-MB-468 compared with ERCC4-complemented counterpart
Text: Bladder cancer cell lines were purchased from ATCC. The KE1 bladder cancer cell line is a derivative of KU19-19 in which an ERCC2 T484 mutation has been introduced by CRISPR/Cas9 gene editing as previously described (6). The MDA-MB-468 breast cancer cell line and its ERCC4-complemented derivative have been previously described (35). Small interfering RNAs (siRNAs) targeting specific NER genes as well as a non-targeting siRNA (siNTC) were purchased from Integrated DNA Technologies Inc. (Coralville, IA, USA; see Table 9 for sequences). Cells were seeded in 6-well plates and grown to 50% confluency. A transfection mixture containing siRNA diluted to a final concentration of 30 nM in Opti-MEM media containing Lipofectamine 3000 (Life Technologies; Carlsbad, CA) was then added to cells. After 48 hours, cells were trypsinized and re-aliquoted to separate wells and transfected with 15 nM siRNA for 24 hours immediately prior to viability assays performed as described below. […]
Cells were seeded in either 96-well (5,000 cells/well) or 24-well (20,000 cells/well) plates. […] Plates were scanned using a luminescence microplate reader (BioTek). […]

[2] = tested on: SW1710 bladder cancer cell line; test: In vitro drug sensitivity assay / crystal violet staining; format: cell-based; conditions: SW1710 compared with other bladder cancer cell lines
Protocol: (§1) Cells were seeded in either 96-well (5,000 cells/well) or 24-well (20,000 cells/well) plates. The following day, irofulven and cisplatin stock solutions were serially diluted in media and added to cells. After 48 to 72 hours, media was removed and CellTiter-Glo® reagent (Promega; Madison, WI) was added. Plates were scanned using a luminescence microplate reader (BioTek). Survival at each drug concentration was plotted as a percentage of survival in drug-free media with error bars representing the standard deviation of at least three experiments.
(§2) For crystal violet imaging experiments, cells were seeded in 6-well plates (100,000-200,000 cells/well) with 15 nM siRNA transfection mixture (as detailed above). At 24 hours, fresh media containing irofulven or PBS was added and the cells were incubated for an additional 72 hours. Cells were then fixed in formalin solution for 30 minutes and stained with crystal violet prepared in equal volumes of methanol and water. Excess crystal violet was removed by washing with PBS, and plates were then dried and imaged.

[3] = tested on: bladder cancer cell lines; test: In vitro drug sensitivity assay / crystal violet staining, cell line panel; format: cell-based; conditions: most bladder cancer cell lines
Protocol: as §1, §2

[4] = tested on: cisplatin-resistant MDA-MB-468 cell line; test: In vitro drug sensitivity assay in cisplatin-resistant derivative; format: cell-based; conditions: cisplatin-resistant derivative of NER-deficient MDA-MB-468
Protocol: as §1
Platinum-based chemotherapy is a first-line treatment for numerous solid malignancies including bladder cancer, but platinum resistance frequently occurs and represents a challenging clinical problem. Although a variety of platinum resistance mechanisms have been characterized, restoration or upregulation of DNA repair is a common mechanism of resistance, particularly in HR-deficient breast and ovarian tumors^33. Mechanisms of platinum resistance in NER deficient tumors have not been characterized, and we wished to determine if acquired resistance to cisplatin would confer cross-resistance to irofulven through restoration of NER. To test this, we derived cisplatin resistance in the NER-deficient MDA-MB-468 cell line by gradual exposure to escalating doses of cisplatin (Methods).

[5] = tested on: KE1 cells (NER-deficient); test: Immunoblotting after irofulven treatment; format: cell-based
Protocol: Cells were lysed with ice-cold RIPA buffer supplemented with protease and phosphatase inhibitors (Roche). Samples were then sonicated and protein concentrations were determined using the Bradford assay. Sample buffer (Bio-Rad) was added and samples were then denatured at 90° C. for 10 mins. Samples were then loaded in NuPAGE™ protein gels (Thermo Fisher Scientific) and run at 90V for 2-3 hours. The gels were then transferred to nitrocellulose membranes at 30V overnight. Membranes were blocked for 30 mins in 5% milk in TBS buffer. Sections of the membrane corresponding to the appropriate molecular weights were stained overnight in primary antibodies prepared in 1% milk in TBST: XPF (1:700, clone D3G8C rabbit mAB, Cell Signaling); cleaved caspase 3 (1:1000, clone D175, rabbit mAB, Cell Signaling); total and cleaved PARP (1:1000, rabbit mAB, Cell Signaling); phospho-H2AX Ser139 (1:1000, clone JBW301 mouse mAB, Millipore); β-tubulin (1:1000, mouse mAB, Santa Cruz Technologies); Rpb1 CTD (1:1000, clone 4H8 Mouse mAb, Cell Signaling). A Licor Odyssey Infrared Imaging System was used for signal detection using IRDYE-conjugated secondary antibodies (LI-COR Biosciences).
Cells were lysed with ice-cold RIPA buffer supplemented with protease and phosphatase inhibitors (Roche). Samples were then sonicated and protein concentrations were determined using the Bradford assay. […]

[6] = tested on: non-tumor cell lines with a TC-NER or common NER pathway gene defect; conditions: cited from earlier work
[7] = tested on: variety of tumor types, biomarker-unselected populations; conditions: single agent, Phase I/II clinical trials; cited from earlier work

SMILES: CC1=C(CO)C2=C(C)C3(CC3)[C@@](C)(O)C(=O)C2=C1 [irofulven]
- irofulven sensitivity [1]: significantly more sensitive; also recorded: dramatically higher irofulven sensitivity
- irofulven sensitivity [2]: much higher sensitivity
- irofulven sensitivity [3]: resistant; also recorded: minimal sensitivity
- irofulven sensitivity [4]: remains sensitive; also recorded: highly sensitive
- RNA polymerase level (immunoblot) ([5]; following irofulven treatment, KE1): time-dependent loss
- phospho-H2AX (γH2AX), cleaved PARP and cleaved caspase-3 (immunoblot) ([5]; irofulven-treated NER-deficient cells): accumulation
- toxicity to cells from patients with inactivating mutations in a TC-NER or common NER gene [6]: highly toxic
- tolerability [7]: well-tolerated
